# Source: PubChem BioAssay AID1963961 (Molecular Pharmacology Branch, DTP, NCI, 2024)
# System: K98450-129-R-PDC multicell spheroids, viability
# Test: Anticancer human tumor K98450-129-R-PDC patient-derived colon adenocarcinoma cell line growth inhibition [PI3K]
# Details: for IC50: curve of first compound; for viability, T/C: stronger effect = lower value
# Source text: Combinatorial screen of targeted agents with the PI3K inhibitors inavolisib, alpelisib, duvelisib, and copanlisib in multi-cell type tumor spheroids
# A high-throughput screen of multi-cell type tumor spheroids was designed to identify active combinations of targeted small molecules and PI3K pathway inhibitors. Complex spheroids include a stromal component modeled by human endothelial cells (HUVEC) and fibroblasts modeled by human mesenchymal stem cells (MSCs). The concentration ranges selected for each drug and investigational agent were based upon clinically achievable concentrations if the clinical Cmax of the agent was known.
# Compounds. The drugs and investigational agents: inavolisib (NSC800729), alpelisib (NSC765974), duvelisib (NSC772469), copanlisib (NSC816437), ipatasertib (NSC767898), afuresertib (NSC778305), talazoparib (NSC767125), sapanisertib (NSC764658), selumetinib (NSC741078), tovorafenib (DAY101, NSC766906), vemurafenib (NSC761431), ravoxertinib (NSC781343), sotorasib (NSC818433), MRTX1133 (NSC 836407), abemaciclib (NSC 768073), palbociclib (NSC758247), venetoclax (NSC 766270), SY5609 (NSC837396), enzalutamide (NSC755605), and darolutamide (NSC825331), were obtained from the National Cancer Institute (NCI) Developmental Therapeutics Program Chemical Repository. The FDA-approved anticancer drug set is available from the NCI Developmental Therapeutics Program. […] The stock solutions were prepared in dimethyl sulfoxide (DMSO, Sigma-Aldrich, St. Louis, MO, cat. D2650) at 800-fold the tested concentration and stored at -70 degrees C prior to their use. All drugs and investigational agents were tested over a range starting from a high concentration at or near the clinical Cmax and decreasing in half-log increments. If the clinical Cmax for an agent had not been determined, the highest concentration tested was 10 microM.
# Cell Culture. All cells were maintained in an incubator at 37 degrees C and 5% CO2 with 95% humidity. The PDC lines were cultured according to standard operating procedures established by the NCI PDMR (https://pdmr.cancer.gov/sops/default.htm). All PDCs were thawed and cultured in Matrigel-coated flasks prepared with a working solution of 1X Ham's F-12 nutrient mix, without supplementation (Invitrogen, Waltham, MA, cat. 11765054), 100 U/mL penicillin-streptomycin (Invitrogen, cat. 15140122), and 2.5% Matrigel (Corning Inc., Corning, NY, cat. 354248) for the first three passages. The 354836-022-R-J1-PDC, 475296-252-R-J1-PDC, and 997726-040-R-J2-PDC lines were cultured in 6A media, which includes advanced DMEM/F-12 (Thermo Fisher Scientific, cat. 12634028), 10 mM HEPES (Thermo Fisher Scientific, cat. 15630080), 1X GlutaMAX supplement (Thermo Fisher Scientific, cat. 35050061), 0.1 mg/mL primocin (InvivoGen, San Diego, CA, cat. ant-pm-2), 10% defined fetal bovine serum, heat inactivated (HyClone Laboratories Inc., Logan, UT, cat. SH30070.03HI), 50% L-WRN conditioned media (ATCC, cat. CRL-3276), 1.25 mM N-Acetyl-L-cysteine (Sigma-Aldrich, cat. A9165), 10 mM nicotinamide (Sigma-Aldrich, cat. N0636), 1X B-27 supplement (Thermo Fisher Scientific, cat. 17504044), 1X N-2 supplement (Thermo Fisher Scientific, cat. 17502048), and 10 microM Y-27632 dihydrochloride (Tocris Bioscience, Bristol, United Kingdom, cat. 1254). The 624824-186-R-J2-PDC line was cultured in 6C/Colon 1B media, which includes all 6A media components plus 50 ng/mL human EGF recombinant protein (Thermo Fisher Scientific, cat. PHG0311). […]
# [1] = second compound 0.0316 µM, first compound 0.0316 µM
# [2] = second compound 0.0316 µM, first compound 0.1 µM
# [3] = second compound 0.1 µM, first compound 0.0316 µM
# [4] = second compound 0.1 µM, first compound 0.1 µM
# [5] = second compound 0.316 µM, first compound 0.0316 µM
# [6] = second compound 0.316 µM, first compound 0.1 µM
# [7] = second compound 1 µM, first compound 0.0316 µM
# [8] = second compound 1 µM, first compound 0.1 µM
# 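Note: spheroids exposed to agents for seven days before read-out.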
compound,measurement,setting,value
CC(=O)c1c(C)c2cnc(Nc3ccc(N4CCNCC4)cn3)nc2n(C2CCCC2)c1=O + Cc1nc(NC(=O)N2CCCC2C(N)=O)sc1-c1ccnc(C(C)(C)C(F)(F)F)c1,IC50,second compound 0.0316 µM,> 0.1 µM
same,IC50,second compound 0.1 µM,> 0.1 µM
same,IC50,second compound 0.316 µM,> 0.1 µM
same,IC50,second compound 1 µM,> 0.1 µM
same,IC50,second compound 3.16 µM,> 0.1 µM
same,IC50,second compound 10 µM,> 0.1 µM
same,"viability, T/C","second compound 0.0316 µM, first compound 0.000316 µM",110%
same,"viability, T/C","second compound 0.0316 µM, first compound 0.001 µM",101%
same,"viability, T/C","second compound 0.0316 µM, first compound 0.00316 µM",104%
same,"viability, T/C","second compound 0.0316 µM, first compound 0.01 µM",104%
same,"viability, T/C",[1],100%
same,"viability, T/C",[2],97.9%
same,"viability, T/C","second compound 0.1 µM, first compound 0.000316 µM",108%
same,"viability, T/C","second compound 0.1 µM, first compound 0.001 µM",95.2%
same,"viability, T/C","second compound 0.1 µM, first compound 0.00316 µM",97.9%
same,"viability, T/C","second compound 0.1 µM, first compound 0.01 µM",93.7%
same,"viability, T/C",[3],106%
same,"viability, T/C",[4],98%
same,"viability, T/C","second compound 0.316 µM, first compound 0.000316 µM",104%
same,"viability, T/C","second compound 0.316 µM, first compound 0.001 µM",107%
same,"viability, T/C","second compound 0.316 µM, first compound 0.00316 µM",95.3%
same,"viability, T/C","second compound 0.316 µM, first compound 0.01 µM",93.3%
same,"viability, T/C",[5],103%
same,"viability, T/C",[6],99%
same,"viability, T/C","second compound 1 µM, first compound 0.000316 µM",90%
same,"viability, T/C","second compound 1 µM, first compound 0.001 µM",92.9%
same,"viability, T/C","second compound 1 µM, first compound 0.00316 µM",91.3%
same,"viability, T/C","second compound 1 µM, first compound 0.01 µM",89.7%
same,"viability, T/C",[7],98.8%
same,"viability, T/C",[8],95.9%
same,"viability, T/C","second compound 3.16 µM, first compound 0.000316 µM",88.2%
same,"viability, T/C","second compound 3.16 µM, first compound 0.001 µM",86.8%
same,"viability, T/C","second compound 3.16 µM, first compound 0.00316 µM",84.6%
same,"viability, T/C","second compound 3.16 µM, first compound 0.01 µM",86.3%
same,"viability, T/C","second compound 3.16 µM, first compound 0.0316 µM",92.1%
same,"viability, T/C","second compound 3.16 µM, first compound 0.1 µM",86.3%
same,"viability, T/C","second compound 10 µM, first compound 0.000316 µM",79.4%
same,"viability, T/C","second compound 10 µM, first compound 0.001 µM",74.6%
same,"viability, T/C","second compound 10 µM, first compound 0.00316 µM",77.3%
same,"viability, T/C","second compound 10 µM, first compound 0.01 µM",79.8%
same,"viability, T/C","second compound 10 µM, first compound 0.0316 µM",80.9%
same,"viability, T/C","second compound 10 µM, first compound 0.1 µM",70.3%
C[C@@H](NC(=O)c1ncnc(N)c1Cl)c1ncc(C(=O)Nc2cc(C(F)(F)F)c(Cl)cn2)s1 + CC(Nc1ccc2c(c1)OCCn1cc(N3C(=O)OCC3C(F)F)nc1-2)C(N)=O,IC50,second compound 0.00316 µM,> 10 µM
same,IC50,second compound 0.01 µM,> 10 µM
same,IC50,second compound 0.0316 µM,> 10 µM
same,IC50,second compound 0.1 µM,> 10 µM
same,IC50,second compound 0.316 µM,> 10 µM
same,IC50,second compound 1 µM,> 10 µM
same,"viability, T/C","second compound 0.00316 µM, first compound 0.0316 µM",111%
same,"viability, T/C","second compound 0.00316 µM, first compound 0.1 µM",109%
same,"viability, T/C","second compound 0.00316 µM, first compound 0.316 µM",118%
same,"viability, T/C","second compound 0.00316 µM, first compound 1 µM",114%
same,"viability, T/C","second compound 0.00316 µM, first compound 3.16 µM",118%
same,"viability, T/C","second compound 0.00316 µM, first compound 10 µM",111%
same,"viability, T/C","second compound 0.01 µM, first compound 0.0316 µM",115%
same,"viability, T/C","second compound 0.01 µM, first compound 0.1 µM",108%
same,"viability, T/C","second compound 0.01 µM, first compound 0.316 µM",116%
same,"viability, T/C","second compound 0.01 µM, first compound 1 µM",115%
same,"viability, T/C","second compound 0.01 µM, first compound 3.16 µM",118%
same,"viability, T/C","second compound 0.01 µM, first compound 10 µM",116%
same,"viability, T/C",[1],105%
same,"viability, T/C",[2],102%
same,"viability, T/C","second compound 0.0316 µM, first compound 0.316 µM",108%
same,"viability, T/C","second compound 0.0316 µM, first compound 1 µM",121%
same,"viability, T/C","second compound 0.0316 µM, first compound 3.16 µM",122%
same,"viability, T/C","second compound 0.0316 µM, first compound 10 µM",104%
same,"viability, T/C",[3],96.7%
same,"viability, T/C",[4],105%
same,"viability, T/C","second compound 0.1 µM, first compound 0.316 µM",107%
same,"viability, T/C","second compound 0.1 µM, first compound 1 µM",110%
same,"viability, T/C","second compound 0.1 µM, first compound 3.16 µM",125%
same,"viability, T/C","second compound 0.1 µM, first compound 10 µM",107%
same,"viability, T/C",[5],97%
same,"viability, T/C",[6],109%
same,"viability, T/C","second compound 0.316 µM, first compound 0.316 µM",113%
same,"viability, T/C","second compound 0.316 µM, first compound 1 µM",111%
same,"viability, T/C","second compound 0.316 µM, first compound 3.16 µM",120%
same,"viability, T/C","second compound 0.316 µM, first compound 10 µM",101%
same,"viability, T/C",[7],86%
same,"viability, T/C",[8],94.4%
same,"viability, T/C","second compound 1 µM, first compound 0.316 µM",102%
same,"viability, T/C","second compound 1 µM, first compound 1 µM",104%
same,"viability, T/C","second compound 1 µM, first compound 3.16 µM",115%
same,"viability, T/C","second compound 1 µM, first compound 10 µM",90.7%
